Data on 1 compound can be found in publication PMC5538702, “Inhibitory effects and mechanism of dihydroberberine on hERG channels expressed in HEK293 cells” (PLoS ONE, 2017).

Molecules are shown by their SMILES.

The experiment has as its target T1, human ether-a-go-go-related gene (hERG) potassium channel (Homo sapiens, UniProt Q12809).
T1 construct: gene KCNH2; WT hERG stably expressed in HEK293 cells
The experiment can be described thus: whole-cell patch clamp of hERG tail current, immediate perfusion; acute block lost in Y652A and F656V mutants. It counts as cell-based. In general terms: Patch clamp records ionic current or voltage across a cell membrane.

The IC50 is the concentration needed to halve the response being measured. A lower IC50 goes with inhibition by little substance.

T1 sequence (Q12809 whole entry): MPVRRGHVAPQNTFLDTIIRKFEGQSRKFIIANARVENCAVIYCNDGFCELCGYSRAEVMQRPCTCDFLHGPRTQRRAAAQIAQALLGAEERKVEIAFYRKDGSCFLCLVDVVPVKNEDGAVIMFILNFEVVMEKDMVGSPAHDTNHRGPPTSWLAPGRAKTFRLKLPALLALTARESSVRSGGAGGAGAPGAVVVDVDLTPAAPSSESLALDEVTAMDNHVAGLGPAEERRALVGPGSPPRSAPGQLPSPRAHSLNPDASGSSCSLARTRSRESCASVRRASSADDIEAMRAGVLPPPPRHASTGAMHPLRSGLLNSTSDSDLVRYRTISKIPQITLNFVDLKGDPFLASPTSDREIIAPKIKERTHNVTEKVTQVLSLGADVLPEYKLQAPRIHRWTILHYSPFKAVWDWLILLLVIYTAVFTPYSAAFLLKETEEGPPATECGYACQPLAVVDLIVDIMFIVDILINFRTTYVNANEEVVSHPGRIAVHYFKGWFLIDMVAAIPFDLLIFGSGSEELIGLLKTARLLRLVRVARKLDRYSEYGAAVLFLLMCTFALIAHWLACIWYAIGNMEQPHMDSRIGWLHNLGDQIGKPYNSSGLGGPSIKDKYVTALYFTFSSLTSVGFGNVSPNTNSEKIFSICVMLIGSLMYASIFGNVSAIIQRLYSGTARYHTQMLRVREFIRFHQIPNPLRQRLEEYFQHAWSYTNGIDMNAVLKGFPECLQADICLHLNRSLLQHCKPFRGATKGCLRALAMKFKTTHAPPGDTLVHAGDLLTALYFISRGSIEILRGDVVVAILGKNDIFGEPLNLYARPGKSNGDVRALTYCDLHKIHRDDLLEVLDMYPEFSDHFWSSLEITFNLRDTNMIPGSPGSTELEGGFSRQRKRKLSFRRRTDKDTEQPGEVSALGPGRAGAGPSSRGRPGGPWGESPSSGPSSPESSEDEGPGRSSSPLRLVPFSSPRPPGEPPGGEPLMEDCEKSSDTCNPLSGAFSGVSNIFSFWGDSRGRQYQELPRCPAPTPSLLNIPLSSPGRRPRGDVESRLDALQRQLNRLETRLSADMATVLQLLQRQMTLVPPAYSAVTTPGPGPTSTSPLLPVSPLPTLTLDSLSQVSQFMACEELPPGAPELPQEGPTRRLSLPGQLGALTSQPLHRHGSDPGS

`COc1ccc2c(c1OC)CN1CCc3cc4c(cc3C1=C2)OCO4` [DHB, dihydroberberine] showed an IC50 of 10.5 µM.
